We go through 14 compounds from patent US10829481B2, “Benzimidazole derivatives as modulators of ROR-gamma” (Vitae Pharmaceuticals, LLC, priority 2016, dated 2020).

Assay [1] has as its target recombinant RORγ Ligand Binding Domain (LBD) protein (Homo sapiens (Human), UniProt P51449). Put plainly: Radio-Ligand RORγ Binding Assay (Assay 1). The note with it: competition with 25-hydroxy [26,27-3H]-cholesterol, SPA. The protocol: Radio-Ligand RORγ Binding Assay (Assay 1)
Compounds described herein were tested for ability to bind to RORγ in a cell-free competition assay with commercially available radio-ligand (RL), 25-hydroxy [26,27-^3H]-cholesterol (PerkinElmer, Cat. #NET674250UC), for a ligand binding site on a recombinant RORγ Ligand Binding Domain (LBD) protein expressed as a 6×His-Glutathione-S-Transferase (GST) fusion. The assay was performed in 96-well SPA plates (PerkinElmer, Cat. #1450-401) in 50 mM HEPES buffer, pH 7.4, containing 150 mM NaCl, 5 mM MgCl2, 10% (v/v) glycerol, 2 mM CHAPS, 0.5 mM β-octylglucopyranoside and 5 mM DTT. Tested compounds were dissolved in DMSO, and semi-log (3.162×) serial dilutions of the compounds were prepared in the same solvent. Two μL of the DMSO solutions were mixed with 28 μL of 8.6 nM 25-hydroxy [26,27-^3H]-cholesterol and 50 μL of 24 nM RORγ LBD. The plate was shaken at 700 rpm for 20 min and incubated for 10 min at rt, after which 40 μL of poly-Lys YSi SPA beads (PerkinElmer, Cat. #RPNQ0010) were added to achieve […] of the beads per well. The plate was incubated on an orbital shaker for 20 min and then for 10 min without agitation at rt. SPA signal for tritium beta radiation was registered on PerkinElmer Microbeta plate reader. […] The percent inhibition vs. concentration data were fit into a four-parameter model, and IC50 values were calculated from the fit as the concentrations corresponding to the inflection points on the dose-response curves. Inhibitory constants (Ki) were calculated using the following equation, where [RL] is the concentration in the assay and KD is a dissociation constant of 25-hydroxy [26,27-^3H]-cholesterol: […]

The target in assay [2] is full-length RORγt in Jurkat cells (Homo sapiens (Human), UniProt P51449). In words: RORγt 5×RORE Assay in Jurkat Cells (Assay 2). The assay is classed as cell-based. The note with it: 5×RORE Nanoluc luciferase reporter. The protocol:
RORγt 5×RORE Assay in Jurkat Cells (Assay 2)
Compounds described herein were tested for RORγ inverse agonist activity in a cell-based, transcriptional activity assay. Secreted Nanoluc® luciferase was used as a reporter for transcriptional activity of the full-length RORγt in Jurkat cells (ATCC, Cat. #TIB-152). […] (Promega, Cat. #N1021) using KpnI and HindIII restriction sites. […] After 5-6 hrs of incubation at 37° C./5% CO2, the cells were collected, resuspended in phenol-red free RPMI media containing 10% (v/v) delipidated FBS (Hyclone, Cat. #SH30855.03) and dispensed into 96-well clear bottom tissue culture plates (CoStar, Cat. #3603), at 80,000 cells per well. Tested compounds were added to the cells in the same media (final concentration of DMSO was 0.1% (v/v)), and the plates were incubated at 37° C./5% CO2 for 16-18 hrs. Luciferase activity in the conditioned supernatants was determined with NanoGlo® assay reagents (Promega, Cat. #N1130).
(In general: Reporter assays use an easily measured gene product as a stand-in for the process of interest.)

A value given as a limit tells only on which side of the number the result lay.

Chain of recombinant RORγ Ligand Binding Domain (LBD) protein (P51449 269-508): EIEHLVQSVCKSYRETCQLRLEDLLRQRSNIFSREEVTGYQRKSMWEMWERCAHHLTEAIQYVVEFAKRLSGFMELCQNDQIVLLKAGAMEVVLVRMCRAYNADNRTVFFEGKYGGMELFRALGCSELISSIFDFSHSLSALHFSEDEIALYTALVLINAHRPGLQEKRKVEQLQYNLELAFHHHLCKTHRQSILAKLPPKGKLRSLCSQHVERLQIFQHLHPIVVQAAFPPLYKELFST
Chain of full-length RORγt in Jurkat cells (P51449 other isoform, or with tags, fused parts or gaps): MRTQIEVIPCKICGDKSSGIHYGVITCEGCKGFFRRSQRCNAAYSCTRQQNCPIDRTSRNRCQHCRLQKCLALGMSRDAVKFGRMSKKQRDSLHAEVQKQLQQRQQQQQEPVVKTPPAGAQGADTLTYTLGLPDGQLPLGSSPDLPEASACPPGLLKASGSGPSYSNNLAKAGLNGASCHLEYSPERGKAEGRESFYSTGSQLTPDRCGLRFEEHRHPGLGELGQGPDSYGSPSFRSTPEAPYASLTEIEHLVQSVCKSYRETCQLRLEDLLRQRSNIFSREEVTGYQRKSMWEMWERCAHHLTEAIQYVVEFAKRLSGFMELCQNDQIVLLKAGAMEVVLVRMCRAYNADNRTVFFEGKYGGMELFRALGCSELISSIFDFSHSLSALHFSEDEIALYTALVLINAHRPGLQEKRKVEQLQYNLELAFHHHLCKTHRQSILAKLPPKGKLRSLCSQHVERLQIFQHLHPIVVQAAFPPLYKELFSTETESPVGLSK

Usually Ki stands for a measure of affinity in units of concentration, obtained from inhibition or displacement. By IC50 is commonly meant the concentration needed to halve the response being measured. For “1-((2,2-difluorobenzo[d][1,3]dioxol-4-yl)methyl)-N-((R)-1-(4-(ethylsulfonyl)phenyl)-2-hydroxyethyl)-2-((R)-tetrahydrofuran-2-yl)-1H-benzo[d]imidazole-5-carboxamide [I-15]”, the inhibitory constant (Ki) in assay [1] is under 100 nM. In assay [2], the IC50 is under 100 nM.
In the case of `CCS(=O)(=O)c1ccc(CNC(=O)c2ccc3c(c2)nc([C@H](C)OC)n3Cc2cccc3c2OC(F)(F)O3)cc1` (mixture of isomers) [I-49.1, (S)-1-((2,2-difluorobenzo[d][1,3]dioxol-4-yl)methyl)-N-(4-(ethylsulfonyl)benzyl)-2-(1-methoxyethyl)-1H-benzo[d]imidazole-5-carboxamide and (R)-1-((2,2-difluorobenzo[d][1,3]dioxol-4-yl)methyl)-N-(4-(ethylsulfonyl)benzyl)-2-(1-methoxyethyl)-1H-benzo[d]imidazole-5-carboxamide], in assay [1], the Ki was under 100 nM. This compound came in with an IC50 in assay [2] of under 100 nM.
With `CCS(=O)(=O)c1ccc(CNC(=O)c2ccc3c(c2)nc([C@@H](C)OC)n3Cc2cccc3c2OC(F)(F)O3)cc1` (mixture of isomers) [I-49.2, (S)-1-((2,2-difluorobenzo[d][1,3]dioxol-4-yl)methyl)-N-(4-(ethylsulfonyl)benzyl)-2-(1-methoxyethyl)-1H-benzo[d]imidazole-5-carboxamide and (R)-1-((2,2-difluorobenzo[d][1,3]dioxol-4-yl)methyl)-N-(4-(ethylsulfonyl)benzyl)-2-(1-methoxyethyl)-1H-benzo[d]imidazole-5-carboxamide], in assay [1], the Ki was under 100 nM. Also, the IC50 in assay [2] is under 100 nM.
As for `CS(=O)(=O)N1CCC([C@@H](CO)NC(=O)c2ccc3c(c2)nc(C(F)(F)F)n3Cc2cccc3c2OC(F)(F)O3)CC1` (mixture of isomers) [I-164.1, (R)-1-((2,2-difluorobenzo[d][1,3]dioxol-4-yl)methyl)-N-(2-hydroxy-1-(1-(methylsulfonyl)piperidin-4-yl)ethyl)-2-(trifluoromethyl)-1H-benzo[d]imidazole-5-carboxamide and (S)-1-((2,2-difluorobenzo[d][1,3]dioxol-4-yl)methyl)-N-(2-hydroxy-1-(1-(methylsulfonyl)piperidin-4-yl)ethyl)-2-(trifluoromethyl)-1H-benzo[d]imidazole-5-carboxamide], the Ki in assay [1] is under 100 nM. The compound further yielded an IC50 in assay [2] of under 100 nM.
As for `CS(=O)(=O)N1CCC([C@H](CO)NC(=O)c2ccc3c(c2)nc(C(F)(F)F)n3Cc2cccc3c2OC(F)(F)O3)CC1` (mixture of isomers) [I-164.2, (R)-1-((2,2-difluorobenzo[d][1,3]dioxol-4-yl)methyl)-N-(2-hydroxy-1-(1-(methylsulfonyl)piperidin-4-yl)ethyl)-2-(trifluoromethyl)-1H-benzo[d]imidazole-5-carboxamide and (S)-1-((2,2-difluorobenzo[d][1,3]dioxol-4-yl)methyl)-N-(2-hydroxy-1-(1-(methylsulfonyl)piperidin-4-yl)ethyl)-2-(trifluoromethyl)-1H-benzo[d]imidazole-5-carboxamide], the Ki in assay [1] is under 100 nM. In assay [2], this compound returned an IC50 of under 100 nM.
As for `CCS(=O)(=O)c1ccc([C@H](O)C(=O)Nc2ccc3c(c2)nc(C(F)(F)F)n3Cc2cccc3c2OC(F)(F)O3)cc1` (mixture of isomers) [I-170.1, (S)-N-(1-((2,2-difluorobenzo[d][1,3]dioxol-4-yl)methyl)-2-(trifluoromethyl)-1H-benzo[d]imidazol-5-yl)-2-(4-(ethylsulfonyl)phenyl)-2-hydroxyacetamide and (R)-N-(1-((2,2-difluorobenzo[d][1,3]dioxol-4-yl)methyl)-2-(trifluoromethyl)-1H-benzo[d]imidazol-5-yl)-2-(4-(ethylsulfonyl)phenyl)-2-hydroxyacetamide], in assay [1], the Ki was under 100 nM. For the same compound, the IC50 in assay [2] was under 100 nM.
Turning to `CCS(=O)(=O)c1ccc([C@@H](O)C(=O)Nc2ccc3c(c2)nc(C(F)(F)F)n3Cc2cccc3c2OC(F)(F)O3)cc1` (mixture of isomers) [I-170.2, (S)-N-(1-((2,2-difluorobenzo[d][1,3]dioxol-4-yl)methyl)-2-(trifluoromethyl)-1H-benzo[d]imidazol-5-yl)-2-(4-(ethylsulfonyl)phenyl)-2-hydroxyacetamide and (R)-N-(1-((2,2-difluorobenzo[d][1,3]dioxol-4-yl)methyl)-2-(trifluoromethyl)-1H-benzo[d]imidazol-5-yl)-2-(4-(ethylsulfonyl)phenyl)-2-hydroxyacetamide], in assay [1], the Ki was under 100 nM. The compound further had an IC50 in assay [2] of under 100 nM.
`CCS(=O)(=O)c1ccc(CC(=O)Nc2ccc3c(c2)nc(C(F)(F)F)n3Cc2cccc3c2OC(F)(F)O3)cc1` [I-1, N-(1-((2,2-difluorobenzo[d][1,3]dioxol-4-yl)methyl)-2-(trifluoromethyl)-1H-benzo[d]imidazol-5-yl)-2-(4-(ethylsulfonyl)phenyl)acetamide]: the inhibition constant Ki in assay [1] is under 100 nM. The compound further registered an IC50 in assay [2] of under 100 nM.
In the case of `CS(=O)(=O)c1ccc(CC(=O)Nc2ccc3c(c2)nc(C(F)(F)F)n3Cc2cccc3c2OC(F)(F)O3)cc1` [I-2, N-(1-((2,2-difluorobenzo[d][1,3]dioxol-4-yl)methyl)-2-(trifluoromethyl)-1H-benzo[d]imidazol-5-yl)-2-(4-(methylsulfonyl)phenyl)acetamide], in assay [1], the Ki was under 100 nM. Further, the IC50 in assay [2] was under 100 nM.
With `O=C(Cc1ccc(S(=O)(=O)CCO)cc1)Nc1ccc2c(c1)nc(C(F)(F)F)n2Cc1cccc2c1OC(F)(F)O2` [I-3, N-(1-((2,2-difluorobenzo[d][1,3]dioxol-4-yl)methyl)-2-(trifluoromethyl)-1H-benzo[d]imidazol-5-yl)-2-(4-((2-hydroxyethyl)sulfonyl)phenyl)acetamide], in assay [1], the Ki was under 100 nM. The compound further had an IC50 in assay [2] of under 100 nM.
With `COCCS(=O)(=O)c1ccc(CC(=O)Nc2ccc3c(c2)nc(C(F)(F)F)n3Cc2cccc3c2OC(F)(F)O3)cc1` [I-4, N-(1-((2,2-difluorobenzo[d][1,3]dioxol-4-yl)methyl)-2-(trifluoromethyl)-1H-benzo[d]imidazol-5-yl)-2-(4-((2-methoxyethyl)sulfonyl)phenyl)acetamide], the inhibition constant Ki in assay [1] was under 100 nM. For the same compound, the IC50 in assay [2] was under 100 nM.
Turning to `CNS(=O)(=O)c1ccc(CC(=O)Nc2ccc3c(c2)nc(C(F)(F)F)n3Cc2cccc3c2OC(F)(F)O3)cc1` [I-5, N-(1-((2,2-difluorobenzo[d][1,3]dioxol-4-yl)methyl)-2-(trifluoromethyl)-1H-benzo[d]imidazol-5-yl)-2-(4-(N-methylsulfamoyl)phenyl)acetamide], the Ki in assay [1] was under 100 nM. For the same compound, the IC50 in assay [2] was under 100 nM.
For the compound `N#Cc1ccc(CC(=O)Nc2ccc3c(c2)nc(C(F)(F)F)n3Cc2cccc3c2OC(F)(F)O3)cc1` [I-6, 2-(4-cyanophenyl)-N-(1-((2,2-difluorobenzo[d][1,3]dioxol-4-yl)methyl)-2-(trifluoromethyl)-1H-benzo[d]imidazol-5-yl)acetamide], the Ki in assay [1] was under 100 nM. For the same compound, the IC50 in assay [2] is over 1000 nM.
With `CCS(=O)(=O)c1ccc(CC(=O)Nc2ccc3c(c2)nc(C2CC2)n3Cc2cccc3c2OC(F)(F)O3)cc1` [I-9, N-(2-cyclopropyl-1-((2,2-difluorobenzo[d][1,3]dioxol-4-yl)methyl)-1H-benzo[d]imidazol-5-yl)-2-(4-(ethylsulfonyl)phenyl)acetamide], the inhibition constant (Ki) in assay [1] was under 100 nM. Also, the IC50 in assay [2] was under 100 nM.
